These results are taken from patent US4530790A, “Cholecystokinin antagonists” (Merck & Co., Inc., priority 1983, dated 1985).

Usually Ki stands for the equilibrium dissociation constant of an inhibitor or competing ligand from its target. As usually defined, the IC50 is the concentration at which inhibition is half-maximal.

One data set concerns CCK. The data set is described as follows: Capacity to antagonize CCK, relative to the compound of Formula I. Particulars: based on the activity of the compound of Formula I (1 x). An excerpt:
The minor components A-D have also been tested for their capacity to antagonize CCK. Based on the activity of the compound of Formula I, the minor components relative activities are: […]

Data set [1] has as its target T1, isolated guinea pig gall bladder (CCK-8) (Cavia porcellus, UniProt Q63931).
T1 construct: The whole gall bladder was dissected free from adjacent tissues; from tissue; host or cells: guinea pig gall bladder
T1 sequence (Q63931 1-430): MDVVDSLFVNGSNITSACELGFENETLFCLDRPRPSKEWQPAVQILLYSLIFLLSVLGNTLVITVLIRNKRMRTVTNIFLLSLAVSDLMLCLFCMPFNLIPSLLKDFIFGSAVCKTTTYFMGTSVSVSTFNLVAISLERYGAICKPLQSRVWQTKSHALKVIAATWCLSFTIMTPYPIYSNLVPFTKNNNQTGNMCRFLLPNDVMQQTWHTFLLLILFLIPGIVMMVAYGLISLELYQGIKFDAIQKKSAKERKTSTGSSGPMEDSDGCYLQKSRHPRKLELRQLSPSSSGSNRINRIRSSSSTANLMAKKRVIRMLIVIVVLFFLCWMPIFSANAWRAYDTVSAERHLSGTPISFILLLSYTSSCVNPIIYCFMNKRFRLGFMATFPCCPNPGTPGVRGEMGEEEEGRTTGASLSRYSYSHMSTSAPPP
The data set is described as follows: Isolated guinea pig gall bladder, antagonism of CCK-8 induced contraction. Also noted: species or system Male Hartley guinea pigs. As for the experimental part: Male Hartley guinea pigs (400-600 g) were sacrificed by decapitation. The whole gall bladder was dissected free from adjacent tissues and its content gently squeezed out. The whole bladder was suspended in 5 ml organ bath under 1 g tension. The organ bath contained a Kreb's bicarbonate solution (NaCl 118 mM, KCl 4.75 mM, CaCl 2.54 mM, KH2 PO4 1.19 mM, Mg SO4 1.2 mM, NaHCO3 25 mM and dextrose 11 mM) maintained at 32° C. and bubbled with 95% O2 and 5% CO2. Isometric contractions were recorded using Statham (60 g; 0.12 mm) strain gauges and a Hewlett-Packard (77588) recorder. The tissues were washed every 10 minutes for 1 hr to obtain equilibrium prior to the beginning of the study. CCK-8 was added cumulatively to the baths and EC50 's determined using regression analysis. After washout (every 10 minutes for 1 hr), the compound of Formula I was added at least 5 minutes before the addition of CCK-8 and the EC50 of CCK-8 in the presence of the compound of Formula I similarly determined. The PA2 values and slope were obtained from regression analysis of a Schild plot (Brit. J. Pharmacol. 14: 48-58, 1959) using three concentrations of the compound of Formula I and 3-4 tissues at each concentration.

A short description of data set [2]: Solubility characteristics. The class given is physicochemical.
A further data set addresses T2, CCK receptor (Rattus norvegicus, UniProt P30551).
T2 construct: The whole pancreas was dissected free of fat tissue and was homogenized; from tissue; host or cells: rat whole pancreas membranes
T2 sequence (P30551 1-444): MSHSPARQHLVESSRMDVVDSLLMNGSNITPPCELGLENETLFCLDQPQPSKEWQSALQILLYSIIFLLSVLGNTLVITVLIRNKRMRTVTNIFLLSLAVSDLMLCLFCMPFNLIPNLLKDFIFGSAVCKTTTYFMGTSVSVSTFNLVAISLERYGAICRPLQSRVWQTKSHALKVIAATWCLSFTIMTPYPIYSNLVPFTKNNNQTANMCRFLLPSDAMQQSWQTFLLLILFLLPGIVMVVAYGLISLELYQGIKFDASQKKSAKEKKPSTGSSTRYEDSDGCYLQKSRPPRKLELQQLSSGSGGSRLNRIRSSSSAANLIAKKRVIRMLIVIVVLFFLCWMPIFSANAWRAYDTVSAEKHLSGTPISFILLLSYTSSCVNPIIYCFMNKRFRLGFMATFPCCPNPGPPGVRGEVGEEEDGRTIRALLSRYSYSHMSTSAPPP
The data set is described as follows: CCK receptor binding (inhibition of specific 125I-CCK-33 binding to whole pancreas membranes). More on the design: species or system Male Sprague-Dawley rats. The settings on record: for IC50: rat pancreas, pH 7.7, 37° C., 30 minutes; for effect on the 125I-CCK receptor binding assay: added protease inhibitors, 1.2 mM phenylmethane sulfonyl fluoride, 0.5 mM o-phenanthroline in assay buffer. As for the experimental part: CCK-33 was radiolabeled with ^125 I-Bolton Hunter reagent (2000 Ci/mmole) as described by Sankara et al. (J. Biol. Chem. 254: 9349-9351, 1979). Receptor binding was performed according to Innis and Snyder (Proc. Natl. Acad. Sci. 77: 6917-6921, 1980) with the minor modification of adding the additional protease inhibitors, phenylmethane sulfonyl fluoride and o-phenanthroline. The latter two compounds have no effect of the ^125 I-CCK receptor binding assay.
Male Sprague-Dawley rats (200-350 g) were sacrificed by decapitation. The whole pancreas was dissected free of fat tissue and was homogenized in 20 volumes of ice-cold 50 mM, Tris HCl (pH 7.7 at 25° C.) with a Brinkmann Polytron PT 10. The homogenates were centrifuged at 48,000 g for 10 min. Pellets were resuspended in Tris Buffer, centrifuged as above and resuspended in 200 volumes of binding assay buffer (50 mM Tris HCl, pH 7.7 at 25° C., 5 mM dithiothreitol, 0.1 mM bacitracin, 1.2 mM phenylmethane sulfonyl fluoride and 0.5 mM o-phenanthroline). For the binding assay, 25 μl of buffer (for total binding) or unlabeled CCK-8 sulfate to give a final concentration of 1 μM (for nonspecific binding) or the compound of Formula I (for determination inhibition of ^125 I-CCK binding) and 25 μl of ^125 I-CCK-33 (30,000-40,000 cpm) were added to 450 μl of the membrane suspensions in microfuge tubes. All assays were run in duplicate or triplicate. The reaction mixtures were incubated at 37° C. for 30 minutes and centrifuged in a Beckman Microfuge (4 minutes) immediately after adding 1 ml of ice-cold incubation buffer. The supernatant was aspirated and discarded, pellets were counted with a Beckman gamma 5000. For Scatchard analysis (Ann. N.Y. Acad. Sci. 51: 660, 1949), ^125 I-CCK-33 was progressively diluted with increasing concentrations of CCK-33.

Data set [3] has as its target T3, isolated longitudinal muscle of guinea pig ileum (CCK-8) (Cavia porcellus, UniProt Q63931).
T3 construct: Longitudinal muscle strips with attached nerve plexus were prepared; from tissue; host or cells: guinea pig ileum longitudinal muscle with attached nerve plexus
T3 sequence (Q63931 1-430): T1 sequence (Q63931 1-430)
The data set is described as follows: Isolated longitudinal muscle of guinea pig ileum, antagonism of CCK-8 induced contraction. More on the design: species or system Male Hartley guinea pigs. As for the experimental part: Longitudinal muscle strips with attached nerve plexus were prepared as described previously (Brit J. Pharmac. 23:; 356-363, 1964; J. Physiol. 194: 13-33, 1969). Male Hartley guinea pigs were decapitated and the ileum was removed (10 cm of the terminal ileum was discarded and the adjacent 20 cm piece was used). A piece (10 cm) of the ileum was stretched on a glass pipette. Using a cotton applicator to stroke tangently away from the mesentery attachment at one end, the longitudinal muscle was separated from the underlying circular muscle. The longitudinal muscle was then tied to a thread and by gently pulling, stripped away from the entire muscle. A piece of approximately 2 cm was suspended in 5 ml organ bath containing Krebs solution and bubbled with 95% O2 and 5% CO2 at 37° C. under 0.5 g tension. CCK-8 was added cumulatively to the baths and EC50 and pA2 values determined as described in the gall bladder preparation (above).

With `O=C1c2ccccc2-n2c(nc3ccccc3c2=O)[C@@H]2C[C@]3(O)c4ccccc4N[C@@H]3N12` [Component A], in the data set on CCK, the “relative activity to antagonize CCK” value is 1/70.

On to `O=C1NC(Cc2c[nH]c3ccccc23)c2nc3ccccc3c(=O)n2-c2ccccc21` (stereo not drawn) [Component B], for which, in the data set on CCK, the “relative activity to antagonize CCK” value is listed as 1/7.

In the case of `O=C1Nc2ccccc2-c2nc3ccccc3c(=O)n2C1Cc1c[nH]c2ccccc12` (stereo not drawn) [Component C], the “relative activity to antagonize CCK” value in the data set with CCK is on record as 1/30.

For the compound `CC(C)C[C@H]1C(=O)N2c3ccccc3[C@@](O)(C[C@@H]3NC(=O)c4ccccc4-n4c3nc3ccccc3c4=O)[C@H]2N1O` [Component D], the “relative activity to antagonize CCK” value with CCK amounted to 5 x.

As to `CC(C)C[C@@H]1N[C@H]2N(C1=O)c1ccccc1[C@@]2(O)C[C@@H]1NC(=O)c2ccccc2-n2c1nc1ccccc1c2=O` [Formula I], the “effect on CCK-8 dose-response” value in data set [1] (1.3-13 μM) and in data set [3] (1.3-13 μM) was “concentration dependent parallel shift to the right of the CCK-8 dose-response without change in the maximal contractile response” in each case. In addition, the mode of antagonism result in data set [1] (CCK-8) is recorded as “competitive antagonist of CCK-8”; in data set [3] it was “competitive antagonism of CCK”. Moreover, the “slope of the Schild plot” value in data set [1] (CCK-8) stood at 0.95±0.19; in data set [3] (CCK-8) it was 0.89±0.20. Further, the Kb in data set [1] (CCK-8, three concentrations, 3-4 tissues each, read-out: pA2 value (Schild plot) (converted)) is 1000 nM; in data set [3] (CCK-8, read-out: pA2 value (Schild plot) (converted)), 398 nM. The inhibition constant (Ki) was 1000 nM in data set [1] (from Schild plot pA2, read-out: Ki value corresponding to pA2 (converted)); 900 nM on CCK receptor (estimated, 125I-CCK-33 receptor binding, read-out: Ki value (dissociation constant of inhibitor)); 400 nM in data set [3] (from Schild plot pA2, read-out: Ki corresponding to pA2 (converted)). The “solubility: soluble in” value in data set [2] (CHCl3, MeOH, EtOH, acetone, DMSO) is “soluble in: CHCl3, MeOH, EtOH, acetone, DMSO”. Moreover, the “solubility: insoluble in” value in data set [2] (H2O, hexane, pet. ether) was “insoluble in: H2 O, hexane, pet. ether”. Further, the “effect on KD (dissociation constant) and Bmax (maximum receptor number) of 125I-CCK-33” value on CCK receptor (Scatchard analysis, 1.3 μM) is “increased the KD (dissociation constant) without affecting the Bmax (maximum receptor number)”. On CCK receptor (Scatchard analysis, absence and presence of 1.3 μM), the “mode of inhibition of specific 125I-CCK-33 receptor binding” value is recorded as “competitively inhibited specific ^125 I-CCK-33 receptor binding”. Moreover, the IC50 on CCK receptor was 1310 nM; on CCK receptor (printed in parentheses), 1300 nM. Moreover, the “relative activity to antagonize CCK” value in the data set with CCK turned out to be 1 x.

As to `c1cnc2c(c1)ccc1cccnc12` [o-phenanthroline, reference compound], on CCK receptor, the “effect on the 125I-CCK receptor binding assay” value is listed as “no effect”.

On to `O=S(=O)(F)Cc1ccccc1` [phenylmethane sulfonyl fluoride, reference compound], for which the “effect on the 125I-CCK receptor binding assay” value on CCK receptor was “no effect”.
